Experimental data from US6495578B1, “Sulfonamide derivatives having oxadiazole rings” (Shionogi & Co., Ltd., priority 1999, dated 2002).

Molecular target: T1, MMP-2 (Homo sapiens, UniProt P08253)
T1 construct: purchased Calbiochem-Novabiochem International, Inc
T1 sequence (P08253 110-660): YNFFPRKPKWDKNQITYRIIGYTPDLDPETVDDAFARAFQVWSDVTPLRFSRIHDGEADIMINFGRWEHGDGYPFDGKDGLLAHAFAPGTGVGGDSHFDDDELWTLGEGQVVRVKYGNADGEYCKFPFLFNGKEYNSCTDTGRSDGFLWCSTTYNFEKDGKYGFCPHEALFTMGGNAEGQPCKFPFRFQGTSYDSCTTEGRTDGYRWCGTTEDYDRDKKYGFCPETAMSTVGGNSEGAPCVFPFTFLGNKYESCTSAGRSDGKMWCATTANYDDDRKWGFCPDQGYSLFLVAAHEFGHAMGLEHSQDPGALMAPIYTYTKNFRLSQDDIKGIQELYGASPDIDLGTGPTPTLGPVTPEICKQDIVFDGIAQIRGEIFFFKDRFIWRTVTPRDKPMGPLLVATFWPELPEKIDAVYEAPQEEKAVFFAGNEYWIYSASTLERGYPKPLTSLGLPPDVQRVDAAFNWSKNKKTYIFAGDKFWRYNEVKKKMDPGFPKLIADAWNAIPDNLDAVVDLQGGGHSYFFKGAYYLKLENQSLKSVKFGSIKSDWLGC
Experiment: Assay for inhibitory activities on MMP-2 (fluorogenic coumarin-labelled peptide substrate)
Type: biochemical
Settings: MMP-2 purchased from Calbiochem-Novabiochem; substrate MOCAc-Pro-Leu-Gly-Leu-A2Pr(DNP)-Ala-Arg-NH2
Description: MMP-2 was purchased from Calbiochem-Novabiochem International, Inc.
The enzymatic activity on MMP-2 was analyzed by the method described in “C. Graham Knight, Frances Willenbrock and Gillian Murphy: A novel coumarin-labelled peptide for sensitive continuous assays of the matrix metalloproteinases: FEBS LETT., 296, (1992), 263-266”. The substrate: MOCAc-Pro-Leu-Gly-Leu-A2Pr(DNP)-Ala-Arg-NH2 was purchased from Peptide Institute, Inc., Osaka, Japan.
The measurement of the inhibitory activities (IC50) was carried out by the following four methods;
A) Reaction with substrate, enzyme (MMPs) and inhibitor
B) Reaction with substrate and inhibitor, without enzyme
C) Reaction with substrate and enzyme (MMPs), without inhibitor
D) Reaction with substrate only
IC50 values were calculated by using the following formula and each fluorescence values of above four methods (A to D).
IC50 means the concentration required to inhibit 50% of the enzyme activity.

IC50	Structure (SMILES)
31 nM	C[C@@H](NS(=O)(=O)c1ccc(-c2noc(-c3ccc(F)cc3)n2)cc1)C(=O)O [Compound A-45]
223 nM	O=C(O)[C@@H](Cc1ccccc1)NS(=O)(=O)c1ccc(-c2noc(-c3ccc(F)cc3)n2)s1 [Compound B-3]
2.88 nM	Cc1ccc(-c2nc(-c3ccc(S(=O)(=O)N[C@@H](C(=O)O)C(C)C)cc3)no2)s1 [Compound A-24]
11.9 nM	CN(C)c1ccc(-c2nc(-c3ccc(S(=O)(=O)N[C@H](Cc4ccccc4)C(=O)O)cc3)no2)cc1 [Compound A-8]
27.9 nM	O=C(O)[C@@H](Cc1ccccc1)NS(=O)(=O)c1ccc(-c2noc(-c3ccccc3)n2)cc1 [Compound A-29]
47 nM	O=C(O)[C@@H](Cc1ccccc1)NS(=O)(=O)c1ccc(-c2noc(-c3ccco3)n2)cc1 [Compound A-42]
26.5 nM	Cc1ccc(-c2nc(-c3ccc(S(=O)(=O)N[C@H](Cc4ccccc4)C(=O)O)s3)no2)s1 [Compound B-6]
339 nM	CC(C)[C@H](NS(=O)(=O)c1ccc(-c2noc(-c3cccs3)n2)cc1)C(=O)O [Compound A-23]
2.9 nM	CCc1ccc(-c2nc(-c3ccc(S(=O)(=O)N[C@H](C)C(=O)O)s3)no2)cc1 [Compound B-8]
12.6 nM	C[C@@H](NS(=O)(=O)c1ccc(-c2noc(-c3ccc([N+](=O)[O-])cc3)n2)cc1)C(=O)O [Compound A-50]
1.23 nM	CCCCc1ccc(-c2nc(-c3ccc(S(=O)(=O)N[C@@H](C(=O)O)C(C)C)cc3)no2)cc1 [Compound A-4]
1.17 nM	CCCc1ccc(-c2nc(-c3ccc(S(=O)(=O)N[C@H](C)C(=O)O)cc3)no2)cc1 [Compound A-48]
28 nM	C[C@@H](NS(=O)(=O)c1ccc(-c2noc(-c3cccs3)n2)s1)C(=O)O [Compound B-9]
15.5 nM	CC(C)[C@@H](NS(=O)(=O)c1ccc(-c2noc(-c3ccc(F)cc3)n2)cc1)C(=O)O [Compound A-17]
6.72 nM	CC(C)[C@@H](NS(=O)(=O)c1ccc(-c2noc(-c3ccc(Cl)s3)n2)cc1)C(=O)O [Compound A-26]
20.2 nM	O=C(O)[C@H](Cc1ccccc1)NS(=O)(=O)c1ccc(-c2noc(-c3ccc4c(c3)OCO4)n2)cc1 [Compound A-37]
50.3 nM	C[C@@H](NS(=O)(=O)c1ccc(-c2noc(-c3ccsc3)n2)cc1)C(=O)O [Compound A-55]
20 nM	CCc1ccc(-c2nc(-c3ccc(S(=O)(=O)NCC(=O)O)cc3)no2)cc1 [Compound A-59]
1.24 nM	CCc1ccc(-c2nc(-c3ccc(S(=O)(=O)N[C@@H](C(=O)O)C(C)C)cc3)no2)cc1 [Compound A-3]
26.5 nM	O=C(O)[C@@H](Cc1ccccc1)NS(=O)(=O)c1ccc(-c2noc(-c3ccc(F)cc3)n2)cc1 [Compound A-7]
12.6 nM	CCc1ccc(-c2nc(-c3ccc(S(=O)(=O)NCC(=O)O)s3)no2)cc1 [Compound B-16]

IC50	Structure (SMILES)
13.1 nM	N#Cc1ccc(-c2nc(-c3ccc(S(=O)(=O)N[C@H](Cc4ccccc4)C(=O)O)cc3)no2)cc1 [Compound A-34]
26.4 nM	CC(C)[C@@H](NS(=O)(=O)c1ccc(-c2noc(-c3ccccc3)n2)cc1)C(=O)O [Compound A-16]
39.7 nM	C[C@@H](NS(=O)(=O)c1ccc(-c2noc(-c3ccc(F)cc3)n2)s1)C(=O)O [Compound B-7]
458 nM	Cc1ccc(-c2nc(-c3ccc(S(=O)(=O)N[C@@H](C)C(=O)O)cc3)no2)cc1 [Compound A-46]
60.3 nM	CC(C)[C@H](NS(=O)(=O)c1ccc(-c2noc(-c3ccc(Cl)s3)n2)cc1)C(=O)O [Compound A-27]
126 nM	CCCc1ccc(-c2nc(-c3ccc(S(=O)(=O)N[C@@H](C)C(=O)O)cc3)no2)cc1 [Compound A-49]
80.7 nM	O=C(O)[C@H](Cc1ccccc1)NS(=O)(=O)c1ccc(-c2noc(-c3ccc(Cl)c(Cl)c3)n2)cc1 [Compound A-39]
4.98 nM	CCc1ccc(-c2nc(-c3ccc(S(=O)(=O)N[C@H](Cc4ccccc4)C(=O)O)cc3)no2)cc1 [Compound A-31]
0.883 nM	CCCc1ccc(-c2nc(-c3ccc(S(=O)(=O)NC(C(=O)O)C(C)C)cc3)no2)cc1 (centres unmarked) [Compound A-20]
5.39 nM	CCc1ccc(-c2nc(-c3ccc(S(=O)(=O)N[C@@H](C(=O)O)C(C)C)s3)no2)cc1 [Compound B-2]
6.29 nM	Cc1ccc(-c2nc(-c3ccc(S(=O)(=O)N[C@H](C)C(=O)O)s3)no2)s1 [Compound B-10]
31 nM	O=C(O)[C@@H](Cc1ccccc1)NS(=O)(=O)c1ccc(-c2noc(-c3cccs3)n2)cc1 [Compound A-40]
70.5 nM	C[C@@H](NS(=O)(=O)c1ccc(-c2noc(-c3ccco3)n2)cc1)C(=O)O [Compound A-56]
33.9 nM	Cc1ccc(-c2nc(-c3ccc(S(=O)(=O)NCC(=O)O)cc3)no2)s1 [Compound A-63]
126 nM	CCCc1ccc(-c2nc(-c3ccc(S(=O)(=O)N[C@H](C(=O)O)C(C)C)cc3)no2)cc1 [Compound A-21]
14.4 nM	O=C(O)[C@@H](Cc1ccccc1)NS(=O)(=O)c1ccc(-c2noc(-c3ccc(C4CCCCC4)cc3)n2)cc1 [Compound A-35]
1.39 nM	CCc1ccc(-c2nc(-c3ccc(S(=O)(=O)N[C@H](Cc4c[nH]c5ccccc45)C(=O)O)cc3)no2)cc1 [Compound A-64]
196 nM	O=C(O)CNS(=O)(=O)c1ccc(-c2noc(-c3cccs3)n2)cc1 [Compound A-62]
614 nM	C[C@@H](NS(=O)(=O)c1ccc(-c2noc(-c3ccccn3)n2)s1)C(=O)O [Compound B-11]
39.8 nM	Cc1ccc(-c2nc(-c3ccc(S(=O)(=O)N[C@@H](Cc4ccccc4)C(=O)O)cc3)no2)cc1 [Compound A-30]
4.08 nM	CCc1ccc(-c2nc(-c3ccc(S(=O)(=O)N[C@H](Cc4c[nH]c5ccccc45)C(=O)O)s3)no2)cc1 [Compound B-13]

IC50	Structure (SMILES)
15.7 nM	CCCc1ccc(-c2nc(-c3ccc(S(=O)(=O)NCC(=O)O)cc3)no2)cc1 [Compound A-61]
29 nM	O=C(O)[C@@H](Cc1c[nH]c2ccccc12)NS(=O)(=O)c1ccc(-c2noc(-c3ccc(F)cc3)n2)s1 [Compound B-12]
171 nM	O=C(O)[C@@H](Cc1ccccc1)NS(=O)(=O)c1ccc(-c2noc(-c3cccnc3)n2)cc1 [Compound A-43]
4.63 nM	CCc1ccc(-c2nc(-c3ccc(S(=O)(=O)N[C@H](C)C(=O)O)cc3)no2)cc1 [Compound A-47]
114 nM	Cc1ccc(-c2nc(-c3ccc(S(=O)(=O)NC(C(=O)O)C(C)C)cc3)no2)cc1 (centres unmarked) [Compound A-19]
6.68 nM	Cc1ccc(-c2nc(-c3ccc(S(=O)(=O)N[C@H](Cc4ccccc4)C(=O)O)cc3)no2)cc1 [Compound A-5]
47.4 nM	Cc1ccc(-c2nc(-c3ccc(S(=O)(=O)N[C@H](C(=O)O)C(C)C)cc3)no2)s1 [Compound A-25]
1.66 nM	CCCc1ccc(-c2nc(-c3ccc(S(=O)(=O)N[C@H](Cc4c[nH]c5ccccc45)C(=O)O)cc3)no2)cc1 [Compound A-65]
5.59 nM	Cc1ccc(-c2nc(-c3ccc(S(=O)(=O)N[C@H](Cc4ccccc4)C(=O)O)cc3)no2)s1 [Compound A-41]
38 nM	Cc1cccc(-c2nc(-c3ccc(S(=O)(=O)N[C@H](Cc4ccccc4)C(=O)O)cc3)no2)c1 [Compound A-36]
9.17 nM	Cc1ccc(-c2nc(-c3ccc(S(=O)(=O)N[C@H](C)C(=O)O)cc3)no2)cc1 [Compound A-10]
124 nM	Cc1ccc(-c2nc(-c3ccc(S(=O)(=O)N[C@@H](CC(C)C)C(=O)O)cc3)no2)cc1 [Compound A-67]
40.7 nM	CC(C)[C@@H](NS(=O)(=O)c1ccc(-c2noc(-c3cccs3)n2)cc1)C(=O)O [Compound A-22]
67.7 nM	CC(C)[C@@H](NS(=O)(=O)c1ccc(-c2noc(-c3ccc(F)cc3)n2)s1)C(=O)O [Compound B-1]
12.4 nM	C[C@@H](NS(=O)(=O)c1ccc(-c2noc(-c3ccc(Cl)s3)n2)cc1)C(=O)O [Compound A-54]
3.21 nM	CC(=O)c1ccc(-c2nc(-c3ccc(S(=O)(=O)N[C@H](C)C(=O)O)cc3)no2)cc1 [Compound A-51]
37.6 nM	CC(C)C[C@@H](NS(=O)(=O)c1ccc(-c2noc(-c3ccc(Cl)cc3)n2)cc1)C(=O)O [Compound A-66]
5.75 nM	CC(C)[C@@H](NS(=O)(=O)c1ccc(-c2noc(-c3ccc(Cl)cc3)n2)cc1)C(=O)O [Compound A-2]
45 nM	C[C@@H](NS(=O)(=O)c1ccc(-c2noc(-c3ccccc3)n2)cc1)C(=O)O [Compound A-44]
13.9 nM	O=C(O)[C@@H](Cc1ccccc1)NS(=O)(=O)c1ccc(-c2noc(-c3ccc(Cl)cc3)n2)cc1 [Compound A-6]
